Results as given in patent US11161845B2, “Pyrrolopyridine-aniline compounds for treatment of dermal disorders” (Nflection Therapeutics, Inc., priority 2017, dated 2021).

Columns and labels:
[1] = molecular target: T1, MEK1 (Homo sapiens, UniProt Q02750); assay: MEK inhibition assay, Biological Example 1a (33P-ATP, P81 filter-binding); settings: read-out: Assay 1: biochemical MEK IC50
T1 construct: N-terminal His-tagged recombinant human full length protein; His (N); purchased Invitrogen PV3303; host or cells: insect cells
Protocol: MEK1 inhibitory activity of compounds were tested using the following procedure. […] Activated in vitro by RAF1. MW=49.2 kDa, GenBank Accession No. NP_002746. • Substrate: 5 μM ERK2 (K52R), • Kinase-dead mutant, (GenBank Accession No. NM_0011949), aa2-358 with N-terminal His6 tag, MW=43.63 kDa, expressed in E. coli.
The substrate was prepared in freshly prepared Reaction Buffer. The kinase was delivered into the substrate solution and gently mixed. Test compounds were delivered in 100% DMSO into the kinase reaction mixture by Acoustic technology (Echo550; nanoliter range), and incubated for 20 min at room temperature. ^33P-ATP was delivered into the reaction mixture to initiate the reaction. The reaction mixture was incubated for 2 hours at room temperature. Kinase activity was detected by P81 filter-binding method.

[2] = test system: P-gp (human MDR1); assay: in vitro; settings: dog; for Papp A→B at 1 h, 5 μM / Papp B→A at 1 h, 5 μM: MDCK-MDR1, Papp
Protocol: (§1) MDCK-MDR1 is a stable-transfected cell line originating from MDCK cells, with over-expression of human MDR1 gene. The cell line is widely used for the identification and characterization of P-gp substrates and inhibitors.
(§2) MDCK-MDR1 cells were plated into 96-well Millipore Millicell-96 plates at 7,500 cells/75 μL/well and incubated for three days at 37° C. with 5% CO2. Cells were washed with Hank's Balanced Salt Solution (HBSS) with 5 mM HEPES for 30 minutes before starting the experiment. Test compound solutions were prepared by diluting DMSO stock into HBSS buffer, resulting in a final DMSO concentration of 0.1%. Prior to the experiment, cell monolayer integrity was verified by […] electrical resistance (TEER). Transport experiment was initiated by adding test compounds to the apical (75 μL) or basal (250 μL) side. Transport plates were incubated at 37° C. in a humidified incubator with 5% CO2. Samples were taken from the donor and acceptor compartments after one hour and analyzed by liquid chromatography with tandem mass spectrometry (LC/MS/MS).
(§3) Digoxin was used as reference control.
(§4) Apparent permeability (Papp) values were calculated using the following equation: Papp=(dQ/dt)/A/Co; where dQ/dt is the initial rate of amount of test compound transported across cell monolayer, A is the surface area of the filter membrane, and Co is the initial concentration of the test compound, calculated for each direction using a 4-point calibration curve by LC/MS/MS.
(§5) Net flux ratio between the two directional transports was calculated by the following equation: Ratio=Papp, B-A/Papp, A-B; where Papp, B-A and Papp, A-B represent the apparent permeability of test compound from the basal-to-apical and apical-to-basal side of the cellular monolayer, respectively.
(§6) Recovery was calculated based on the compound concentration at the end of the experiment, compared to that at the beginning of the experiment, adjusted for volumes.
(§7) A net flux ratio greater than two was considered a positive result for substrate determination. […] If the addition of a known P-gp inhibitor to the experiment reduces the net flux ratio by a significant amount (more than 50% reduction or reduces the ratio to close to unity), it is likely that the compound tested is a P-gp substrate.

[3] = test system: MDCK-MDR1 cells; assay: in vitro; settings: dog, MDCK-MDR1, 1 h, 5 μM
Protocol: as §1, §2, §3, §4, §5, §6, §7

[4] = Plasma LCMS compound levels, in vivo mouse model; design: species or system mice; settings: for concentration at 1 h / concentration at 2 h: male, C57BL/6J, mouse, plasma; for concentration at 1 h: 1 h after final application; for concentration at 2 h: 2 h after final application; for Plasma LCMS Compound Levels: pre-dose (16 h)
Protocol: These mice were also shaved weekly.
Week 4 (Experiment end): Skin and blood were collected right before the last morning dose (N=3), 1 hour (N=3 mice), and 2 hours (N=3 mice) after final application; Blood draw: Plasma compound levels (LCMS); Skin biopsy: formalin fixed for histology and p-ERK staining, flash frozen for Western analysis and skin compound levels (LCMS)
Compound level analysis: Liquid chromatography with mass spectrometry method (LCMS) was used to detect compound levels in the skin and plasma. Tissues were preprocessed prior to LCMS as follows. Tissues were minced and incubated with collagenase and then finally homogenized using the stainless steel beads prior to LCMS analysis. Calibration curves and a QC test were run with each assay.

[5] = test system: p-ERK in human cutaneous neurofibroma (cNF) explants; assay: Human cutaneous neurofibroma explant protocol, p-ERK suppression; format: cell-based
Source text: Study Objectives: The primary objective was to assess the efficacy of a topically-formulated compound described herein in suppressing p-ERK, a downstream biomarker of RAS/MAPK signaling in neurofibroma explants.
Primary dermal neurofibromas or cutaneous neurofibromas were obtained from patients with clinical or genetic diagnoses of NFL. […] Specimens were identified under the direction of the Principal Investigator and placed in cell proliferation media (DMEM/F12 containing penicillin/streptomycin (0.1%); fungizone (40 μg/mL); B27 (without vitamin A).
Specimens were identified under the direction of the Principal Investigator
Specimens were chopped into 2 mm fragments and placed in 24-well plates containing cell proliferation media (DMEM/F12 containing penicillin/streptomycin (0.1%); fungizone (40 μg/mL); B27 (without vitamin A) and submerged in media with drug. For topical gel application, samples were placed in 96 well plates with epidermal surface exposed to air.
The gel formulation was 1% hydroxypropyl cellulose in DMSO/PEG 400 1:1 (v/v). Harvested tissue was bisected and with half snap frozen and half fixed in 10% formalin and paraffin embedded for further analysis.
Samples were harvested at 4 hours with half snap frozen in liquid nitrogen and half fixed in 10% formalin and paraffin embedded for histologic analysis.
Western Blot analysis: For immunoblotting, total skin biopies were lysed in lysis buffer and run on Western blots. Antibodies used for immunoblotting included rabbit anti-phospho-p44/42 MAPK (1:3000, Cell Signaling) and rabbit anti-p44/42 MAPK (1:3000, Cell Signaling), rabbit anti-phospho-Mek1/2 (1:3000, Cell Signaling), mouse anti-actin (1:5000, Sigma-Aldrich), donkey anti-mouse IgG conjugated to horseradish peroxidase (HRP; 1:40,000, Amersham Biosciences) and goat anti-rabbit IgG conjugated HRP (1:40,000, Jackson ImmunoResearch).
Immunohistochemistry: Immunohistochemistry was performed on 5 pm paraffin sections. Antigen retrieval with enzyme treatment (1:1000) using standard protocols. Antibodies used were rabbit p-ERK (Cell Signaling, 4307S, 1:100). Bond Polymer Refine anti-rabbit HRP Detection (Leica Biosystems) was used according to manufacturer's protocol. Sections were then counterstained with hematoxylin, dehydrated and film coverslipped using a TissueTek-Prisma and Coverslipper (Sakura).
Data Analysis: Semi-quantative Western blot was used to assess differences in p-ERK in samples treated with a compound described herein compared to vehicle control.

T1 sequence (Q02750 whole entry): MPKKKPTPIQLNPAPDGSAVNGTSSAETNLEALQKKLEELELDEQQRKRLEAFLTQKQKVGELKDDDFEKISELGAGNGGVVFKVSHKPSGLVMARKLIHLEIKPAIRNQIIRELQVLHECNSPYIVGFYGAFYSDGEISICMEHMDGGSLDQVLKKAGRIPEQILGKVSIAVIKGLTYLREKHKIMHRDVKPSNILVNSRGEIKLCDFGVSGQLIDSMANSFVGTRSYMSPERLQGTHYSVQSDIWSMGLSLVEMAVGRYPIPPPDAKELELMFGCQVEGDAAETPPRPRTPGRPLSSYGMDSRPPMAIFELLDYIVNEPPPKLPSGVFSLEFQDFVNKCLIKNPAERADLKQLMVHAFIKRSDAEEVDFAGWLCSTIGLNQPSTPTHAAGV

Cn1c(Nc2ccc(I)cc2F)c(C(=O)NOCCO)c2cccnc21 [Example 2, 2-((2-Fluoro-4-iodophenyl)amino)—N-(2-hydroxyethoxy)-1-methyl-1H-pyrrolo[2,3-b]pyridine-3-carboxamide]
IC50 [1]: 246 nM | efflux ratio at 1 h, 5 μM ([2]; MDCK-MDR1): 0.9 | Papp A→B at 1 h, 5 μM ([2]; A-B Mean): 49.1 ×10⁻⁶ cm/s | Papp A→B at 1 h, 5 μM ([2]; A-B Value): 50.5 ×10⁻⁶ cm/s | Papp B→A at 1 h, 5 μM ([2]; B-A Mean): 41.8 ×10⁻⁶ cm/s | Papp B→A at 1 h, 5 μM ([2]; B-A Value): 42.3 ×10⁻⁶ cm/s | Papp, A-B Value [3]: 47.8 ×10⁻⁶ cm/s | Papp, B-A Value [3]: 41.3 ×10⁻⁶ cm/s | Recover Rate [3]: 92% | concentration at 1 h ([4]; topical 0.1%): 174 ng/mL | concentration at 2 h ([4]; topical 0.1%): 37.9 ng/mL | concentration at 1 h ([4]; topical 0.5%): 1040 ng/mL | concentration at 2 h ([4]; topical 0.5%): 102 ng/mL | concentration at 1 h ([4]; topical 1%): 1020 ng/mL | concentration at 2 h ([4]; topical 1%): 262 ng/mL | Plasma LCMS Compound Levels ([4]; topical 0.1%): 1.18 ng/mL | Plasma LCMS Compound Levels ([4]; topical 0.5%): 4.78 ng/mL | Plasma LCMS Compound Levels ([4]; topical 1%): 24.98 ng/mL | suppression of p-ERK ([5]; FIG. 2, 500 nM, explant submerged in media, 4 hours): suppression of p-ERK | dose-dependent suppression of p-ERK ([5]; FIG. 3, explant submerged in media, 4 hours): dose-dependent suppression of p-ERK | p-ERK after application of a topical gel ([5]; FIG. 4, gel 1% hydroxypropyl cellulose in DMSO/PEG 400 1:1, 4 hours): p-ERK was suppressed | suppression of pERK ([5]; FIGS. 1a and 1b, explant submerged in media, 4 hours): suppression of pERK
